Laboratory results as given in ChEMBL document CHEMBL3885881, “DrugMatrix”.

Species on record: Rattus norvegicus
Assay: DrugMatrix - Regimen: Daily Repeat
Type: toxicity, organism-based, Sprague-Dawley
Design: regimen Daily Repeat, gender Male, age 6-8 weeks
Conditions: in vivo, ip, 0.5 mg/kg, route intraperitoneal, dose level High, vehicle 100 % SALINE; for ALANINE AMINOTRANSFERASE / ALBUMIN / ALKALINE PHOSPHATASE / ASPARTATE AMINOTRANSFERASE / BLOOD UREA NITROGEN / CHLORIDE / CHOLESTEROL / CREATINE PHOSPHOKINASE / CREATININE / GLUCOSE / LACTATE DEHYDROGENASE / LIPASE / PHOSPHORUS / POTASSIUM / SODIUM / TOTAL BILIRUBIN / TOTAL PROTEIN / URIC ACID: tissue Plasma
[1] = 120 h, tissue Blood, time 5 day

TRANSPLATIN gave an ABSOLUTE BASOPHIL [1] of 86 cells/µL, an ABSOLUTE EOSINOPHIL [1] of 98 cells/µL and an ABSOLUTE LYMPHOCYTE [1] of 10800 cells/µL. The ABSOLUTE MONOCYTE [1] was 340 cells/µL, the ABSOLUTE SEGMENTED NEUTROPHIL [1] was 1910 cells/µL and the BASOPHIL [1] was 0.64%. The EOSINOPHIL [1] was 0.74%, the “ERYTHROCYTE COUNT” value [1] was 7.41 x10E6/uL and the HEMATOCRIT [1] was 45.48%. For the same sequence, the HEMOGLOBIN [1] was 14.92 G/DL, the “LEUKOCYTE COUNT” value [1] was 13.36 x10E3/uL and the LYMPHOCYTE [1] was 80.42%. For the same sequence, the “MEAN CORPUSCULAR HEMOGLOBIN” value [1] was 20.12 pg, the “MEAN CORPUSCULAR HEMOGLOBIN CONCENTRATION” value [1] was 32.8 G/DL and the MONOCYTE [1] was 2.5%. The NEUTROPHIL [1] was 14.94%, the “PLATELET COUNT” value [1] was 1349 x10E3/uL and the “ALANINE AMINOTRANSFERASE” value (120 h, time 5 day) was 30.2 u/L. For the same sequence, the ALBUMIN (120 h, time 5 day) was 3.6 G/DL, the “ALKALINE PHOSPHATASE” value (120 h, time 5 day) was 229 u/L and the “ASPARTATE AMINOTRANSFERASE” value (120 h, time 5 day) was 82.8 u/L. For the same sequence, the “BLOOD UREA NITROGEN” value (120 h, time 5 day) was 15 mg/dL, the CHLORIDE (120 h, time 5 day) was 110 MEQ/L and the CHOLESTEROL (120 h, time 5 day) was 67.2 mg/dL. For the same sequence, the “CREATINE PHOSPHOKINASE” value (120 h, time 5 day) was 368.2 u/L, the CREATININE (120 h, time 5 day) was 0.52 mg/dL and the GLUCOSE (120 h, time 5 day) was 119 mg/dL. For the same sequence, the “LACTATE DEHYDROGENASE” value (120 h, time 5 day) was 67.6 u/L, the LIPASE (120 h, time 5 day) was 22.4 u/L and the PHOSPHORUS (120 h, time 5 day) was 9.94 mg/dL. For the same sequence, the POTASSIUM (120 h, time 5 day) was 6.16 MEQ/L, the SODIUM (120 h, time 5 day) was 151.8 MEQ/L and the “TOTAL BILIRUBIN” value (120 h, time 5 day) was 0.2 mg/dL. For the same sequence, the “TOTAL PROTEIN” value (120 h, time 5 day) was 6.2 G/DL, the “URIC ACID” value (120 h, time 5 day) was 0.98 mg/dL and the ABSOLUTE BASOPHIL ([…], tissue Blood, time 14 day) was 68 cells/µL. For the same sequence, the ABSOLUTE EOSINOPHIL ([…], tissue Blood, time 14 day) was 76 cells/µL, the ABSOLUTE LYMPHOCYTE ([…], tissue Blood, time 14 day) was 6430 cells/µL and the ABSOLUTE MONOCYTE ([…], tissue Blood, time 14 day) was 260 cells/µL. It also gave an ABSOLUTE SEGMENTED NEUTROPHIL ([…], tissue Blood, time 14 day) of 2460 cells/µL, a BASOPHIL ([…], tissue Blood, time 14 day) of 0.74% and an EOSINOPHIL ([…], tissue Blood, time 14 day) of 0.84%. For the same sequence, the “ERYTHROCYTE COUNT” value ([…], tissue Blood, time 14 day) was 7.71 x10E6/uL, the HEMATOCRIT ([…], tissue Blood, time 14 day) was 46.84% and the HEMOGLOBIN ([…], tissue Blood, time 14 day) was 15.04 G/DL. For the same sequence, the “LEUKOCYTE COUNT” value ([…], tissue Blood, time 14 day) was 9.33 x10E3/uL, the LYMPHOCYTE ([…], tissue Blood, time 14 day) was 69.2% and the “MEAN CORPUSCULAR HEMOGLOBIN” value ([…], tissue Blood, time 14 day) was 19.52 pg. The “MEAN CORPUSCULAR HEMOGLOBIN CONCENTRATION” value ([…], tissue Blood, time 14 day) was 32.1 G/DL, the MONOCYTE ([…], tissue Blood, time 14 day) was 2.7% and the NEUTROPHIL ([…], tissue Blood, time 14 day) was 26.14%. For the same sequence, the “PLATELET COUNT” value ([…], tissue Blood, time 14 day) was 1318.6 x10E3/uL, the ABSOLUTE BASOPHIL ([…], tissue Blood, time 28 day) was 120 cells/µL and the ABSOLUTE EOSINOPHIL ([…], tissue Blood, time 28 day) was 130 cells/µL. The ABSOLUTE LYMPHOCYTE ([…], tissue Blood, time 28 day) was 9640 cells/µL, the ABSOLUTE MONOCYTE ([…], tissue Blood, time 28 day) was 190 cells/µL and the ABSOLUTE SEGMENTED NEUTROPHIL ([…], tissue Blood, time 28 day) was 1790 cells/µL. For the same sequence, the BASOPHIL ([…], tissue Blood, time 28 day) was 1.07%, the EOSINOPHIL ([…], tissue Blood, time 28 day) was 1.08% and the “ERYTHROCYTE COUNT” value ([…], tissue Blood, time 28 day) was 8.68 x10E6/uL. For the same sequence, the HEMATOCRIT ([…], tissue Blood, time 28 day) was 49.56%, the “LEUKOCYTE COUNT” value ([…], tissue Blood, time 28 day) was 11.93 x10E3/uL and the LYMPHOCYTE ([…], tissue Blood, time 28 day) was 80.6%. For the same sequence, the “MEAN CORPUSCULAR HEMOGLOBIN” value ([…], tissue Blood, time 28 day) was 18.81 pg, the “MEAN CORPUSCULAR HEMOGLOBIN CONCENTRATION” value ([…], tissue Blood, time 28 day) was 32.89 G/DL and the “MEAN CORPUSCULAR VOLUME” value ([…], tissue Blood, time 28 day) was 57.13 fL. For the same sequence, the MONOCYTE ([…], tissue Blood, time 28 day) was 1.64%, the NEUTROPHIL ([…], tissue Blood, time 28 day) was 15.11% and the “PLATELET COUNT” value ([…], tissue Blood, time 28 day) was 1319.89 x10E3/uL. For the same sequence, the “ALANINE AMINOTRANSFERASE” value ([…], time 14 day) was 24.6 u/L, the ALBUMIN ([…], time 14 day) was 3.5 G/DL and the “ALKALINE PHOSPHATASE” value ([…], time 14 day) was 202 u/L. For the same sequence, the “ASPARTATE AMINOTRANSFERASE” value ([…], time 14 day) was 78.6 u/L, the “BLOOD UREA NITROGEN” value ([…], time 14 day) was 12.6 mg/dL and the CHOLESTEROL ([…], time 14 day) was 52.8 mg/dL. The “CREATINE PHOSPHOKINASE” value ([…], time 14 day) was 180.2 u/L, the CREATININE ([…], time 14 day) was 0.58 mg/dL and the GLUCOSE ([…], time 14 day) was 120.4 mg/dL. The “LACTATE DEHYDROGENASE” value ([…], time 14 day) was 80.8 u/L, the LIPASE ([…], time 14 day) was 54.4 u/L and the POTASSIUM ([…], time 14 day) was 5.82 MEQ/L. For the same sequence, the SODIUM ([…], time 14 day) was 150.8 MEQ/L, the “TOTAL BILIRUBIN” value ([…], time 14 day) was 0.3 mg/dL and the “TOTAL PROTEIN” value ([…], time 14 day) was 6.48 G/DL. The “URIC ACID” value ([…], time 14 day) was 0.98 mg/dL, the “ALANINE AMINOTRANSFERASE” value ([…], time 28 day) was 35.44 u/L and the ALBUMIN ([…], time 28 day) was 3.69 G/DL. For the same sequence, the “ALKALINE PHOSPHATASE” value ([…], time 28 day) was 151 u/L, the “ASPARTATE AMINOTRANSFERASE” value ([…], time 28 day) was 83 u/L and the “BLOOD UREA NITROGEN” value ([…], time 28 day) was 14 mg/dL. For the same sequence, the CHLORIDE ([…], time 28 day) was 108.89 MEQ/L, the CHOLESTEROL ([…], time 28 day) was 61.44 mg/dL and the “CREATINE PHOSPHOKINASE” value ([…], time 28 day) was 144.22 u/L. The CREATININE ([…], time 28 day) was 0.58 mg/dL, the GLUCOSE ([…], time 28 day) was 132.22 mg/dL and the “LACTATE DEHYDROGENASE” value ([…], time 28 day) was 67.22 u/L. For the same sequence, the LIPASE ([…], time 28 day) was 45.22 u/L, the PHOSPHORUS ([…], time 28 day) was 9.38 mg/dL and the SODIUM ([…], time 28 day) was 151.78 MEQ/L. The “TOTAL BILIRUBIN” value ([…], time 28 day) was 0.2 mg/dL, the “TOTAL PROTEIN” value ([…], time 28 day) was 6.82 G/DL and the “URIC ACID” value ([…], time 28 day) was 1.21 mg/dL.
